#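 96-well plates; 48 h exposure; 5 concentrations. Endpoints by linear interpolation between flanking doses. Not reached: highest tested concentration assigned. GI50 marks 50% less growth. TGI: total growth inhibition.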
# What was measured:
# Experiment in all cases: DTP human tumour cell line panel, 48 h
# NCI-H460 lung = tested on: NCI-H460 lung
# OVCAR-5 ovarian = tested on: OVCAR-5 ovarian
# HT29 colon = tested on: HT29 colon
# ACHN renal = tested on: ACHN renal
# LOX IMVI melanoma = tested on: LOX IMVI melanoma
# PC-3 prostate = tested on: PC-3 prostate
# EKVX NSCLC = tested on: EKVX NSCLC
# RXF 393 renal = tested on: RXF 393 renal
# SK-MEL-28 melanoma = tested on: SK-MEL-28 melanoma
# MCF7 breast = tested on: MCF7 breast
Structure (SMILES),TGI (NCI-H460 lung),TGI (OVCAR-5 ovarian),TGI (HT29 colon),TGI (ACHN renal),TGI (LOX IMVI melanoma),TGI (PC-3 prostate),TGI (EKVX NSCLC),TGI (RXF 393 renal),TGI (SK-MEL-28 melanoma),TGI (MCF7 breast),GI50 (NCI-H460 lung),GI50 (OVCAR-5 ovarian),GI50 (HT29 colon),GI50 (ACHN renal),GI50 (LOX IMVI melanoma),GI50 (PC-3 prostate),GI50 (EKVX NSCLC),GI50 (RXF 393 renal),GI50 (SK-MEL-28 melanoma),GI50 (MCF7 breast)
COc1cc2c(cc1C)NC(=O)/C2=C/c1c(Cl)n(C)c2ccccc12,29.1 µM,36.4 µM,22.5 µM,25.7 µM,22.7 µM,29.6 µM,28.1 µM,19.6 µM,62.6 µM,25.7 µM,–,–,–,–,–,–,–,–,–,–
CC(C)(C)OC(=O)N(CCCN)CCCCN(CCCN)C(=O)OC(C)(C)C,> 100 µM,> 100 µM,> 100 µM,> 100 µM,> 100 µM,> 100 µM,> 100 µM,> 100 µM,> 100 µM,> 100 µM,–,–,–,–,–,–,–,–,–,–
Cc1ccc(-c2c(C#N)c(O)n(NS(=O)(=O)c3ccccc3)c(=O)c2C#N)cc1,> 100 µM,> 100 µM,> 100 µM,> 100 µM,> 100 µM,> 100 µM,> 100 µM,> 100 µM,> 100 µM,> 100 µM,–,–,–,–,–,–,–,–,–,–
CCN1CCc2sc3[nH]c(=S)n(C)c(=O)c3c2C1,> 100 µM,> 100 µM,> 100 µM,> 100 µM,> 100 µM,> 100 µM,> 100 µM,> 100 µM,> 100 µM,> 100 µM,–,–,–,–,–,–,–,–,–,–
CC(C)NC(=O)OCc1c(COC(=O)NC(C)C)c(-c2ccc[n+](COC(=O)C3CCCCC3)c2)n2c1CCC2,> 100 µM,> 100 µM,> 100 µM,> 100 µM,> 100 µM,> 100 µM,> 100 µM,> 100 µM,> 100 µM,> 100 µM,–,–,–,–,–,–,–,–,–,–
O=S(=O)(N1CCCCN(S(=O)(=O)C(F)(F)F)CCCN(S(=O)(=O)C(F)(F)F)CCCN(S(=O)(=O)C(F)(F)F)CCCCN(S(=O)(=O)C(F)(F)F)CCCN(S(=O)(=O)C(F)(F)F)CCC1)C(F)(F)F,> 100 µM,> 100 µM,> 100 µM,> 100 µM,> 100 µM,> 100 µM,> 100 µM,70.2 µM,> 100 µM,> 100 µM,–,–,–,–,–,–,–,–,–,–
CN(C)CCCn1c2c(c3ccncc3c1=O)C(=O)c1ccccc1-2,3.63 µM,9.25 µM,13.1 µM,10.4 µM,4.95 µM,9.78 µM,48.3 µM,3.86 µM,4.7 µM,14 µM,0.438 µM,1.82 µM,0.484 µM,0.339 µM,0.36 µM,1.14 µM,7.91 µM,1.14 µM,1.72 µM,0.333 µM
Cc1ccc(-c2cn3c(nc4ccccc43)c(C)n2)cc1,> 100 µM,> 100 µM,> 100 µM,> 100 µM,> 100 µM,> 100 µM,> 100 µM,> 64.4 µM,> 100 µM,> 100 µM,–,–,–,–,–,–,–,–,–,–
COc1cc(OC)cc(N(C)Cc2cnc3nc(N)nc(N)c3c2C)c1,> 100 µM,> 100 µM,> 100 µM,> 100 µM,> 100 µM,> 100 µM,> 100 µM,> 100 µM,> 100 µM,> 100 µM,–,–,–,–,–,–,–,–,–,–
CCCCCCc1cc2cc(C(=O)Nc3cccc(C(F)(F)F)c3)c(=N)oc2cc1O,> 32.1 µM,69.7 µM,> 100 µM,> 34.7 µM,3.09 µM,15.1 µM,11.6 µM,2.19 µM,27.6 µM,6.47 µM,–,–,–,–,–,–,–,–,–,–
CCOc1c(OC)cc(CNNc2nccs2)cc1OC,> 100 µM,> 100 µM,> 100 µM,> 100 µM,> 100 µM,> 100 µM,> 100 µM,> 100 µM,> 100 µM,> 100 µM,–,–,–,–,–,–,–,–,–,–
c1ccc(C2(c3cc4ccccc4[nH]3)OCCO2)cc1,> 100 µM,> 100 µM,> 100 µM,> 100 µM,> 100 µM,> 100 µM,> 100 µM,> 100 µM,> 100 µM,> 100 µM,–,–,–,–,–,–,–,–,–,–
CN(C)CCCNc1ccc2nnn3c4ccc([N+](=O)[O-])cc4c(=O)c1c23,1.57 µM,9.59 µM,7.11 µM,5.92 µM,2.22 µM,11.7 µM,12.9 µM,4.25 µM,17.2 µM,8.08 µM,–,–,–,–,–,–,–,–,–,–
C=CCn1c(=O)c(-c2ccccc2)c(O)c2ccccc21,> 100 µM,> 100 µM,> 100 µM,> 100 µM,> 100 µM,> 100 µM,> 100 µM,> 100 µM,> 100 µM,> 100 µM,–,–,–,–,–,–,–,–,–,–
COC[C@@H](N=Cc1ccc(OC)cc1)C(C)C,> 100 µM,> 100 µM,> 100 µM,> 100 µM,> 100 µM,> 100 µM,> 100 µM,> 100 µM,> 100 µM,> 100 µM,–,–,–,–,–,–,–,–,–,–
Fc1ccccc1N=c1oc2ccc(Br)cc2cc1-c1nc2ccccc2[nH]1,> 76.6 µM,> 62.8 µM,> 54.8 µM,29.8 µM,> 31.2 µM,> 23.4 µM,> 41.5 µM,21.8 µM,> 76.2 µM,> 100 µM,–,–,–,–,–,–,–,–,–,–

Structure (SMILES),TGI (NCI-H460 lung),TGI (OVCAR-5 ovarian),TGI (HT29 colon),TGI (ACHN renal),TGI (LOX IMVI melanoma),TGI (PC-3 prostate),TGI (EKVX NSCLC),TGI (RXF 393 renal),TGI (SK-MEL-28 melanoma),TGI (MCF7 breast),GI50 (NCI-H460 lung),GI50 (OVCAR-5 ovarian),GI50 (HT29 colon),GI50 (ACHN renal),GI50 (LOX IMVI melanoma),GI50 (PC-3 prostate),GI50 (EKVX NSCLC),GI50 (RXF 393 renal),GI50 (SK-MEL-28 melanoma),GI50 (MCF7 breast)
O=C1c2c(ccc3c2CCCC3)CC12Cc1ccccc1C2,> 47.1 µM,> 67.6 µM,> 57.1 µM,97.1 µM,29.4 µM,> 100 µM,> 95.9 µM,46.2 µM,> 80.4 µM,> 76.6 µM,–,–,–,–,–,–,–,–,–,–
COc1c(-c2ccc3c(c2)OCO3)oc2cc3c(c(OC)c2c1=O)OCO3,28 µM,> 100 µM,> 100 µM,63 µM,32.1 µM,58 µM,57.1 µM,69.8 µM,> 100 µM,40.6 µM,–,–,–,–,–,–,–,–,–,–
COc1ccc2c(c1)CCC1C2CCC2(C)C1CC[C@@]2(O)CNC(=O)/C=C/c1ccc(O)c(O)c1 (stereo not given in full),> 100 µM,> 100 µM,4.78 µM,7.16 µM,5.57 µM,10.2 µM,> 100 µM,16.7 µM,31.8 µM,> 100 µM,2.69 µM,16.5 µM,1.93 µM,2.19 µM,1.58 µM,1.92 µM,4.01 µM,3.98 µM,4.33 µM,3.66 µM
O=C1N[C@@H](c2c[nH]c3ccc(Br)cc23)C(=O)N[C@H]1c1c[nH]c2ccc(Br)cc12,27.8 µM,28.8 µM,20.2 µM,15.8 µM,20.9 µM,16.1 µM,29.7 µM,43.4 µM,28.5 µM,35.2 µM,–,–,–,–,–,–,–,–,–,–
CC(C)(C)C(=O)C(C#N)C(=O)C(C)(C)C,> 100 µM,> 100 µM,> 100 µM,> 100 µM,> 100 µM,> 100 µM,> 100 µM,> 100 µM,> 100 µM,> 100 µM,–,–,–,–,–,–,–,–,–,–
COc1ccc(N=Nc2ccc3oc(=O)c(C(=O)Nc4ccc(OC)cc4)cc3c2)cc1,79.4 µM,50.6 µM,55.5 µM,56.5 µM,18.1 µM,43.1 µM,97.7 µM,> 100 µM,41.1 µM,38 µM,–,–,–,–,–,–,–,–,–,–
CC(C)Oc1c(O)c2c3c(oc(=O)n3C=CC2c2ccccc2F)c1OC(C)C (stereo not given),> 100 µM,42.9 µM,54.1 µM,> 100 µM,33.1 µM,40.1 µM,> 100 µM,81.5 µM,> 100 µM,> 100 µM,–,–,–,–,–,–,–,–,–,–
O=S(=O)(CC#CCS(=O)(=O)c1ccccc1)c1ccccc1,38.9 µM,19.7 µM,27.7 µM,3.25 µM,3.32 µM,22.3 µM,12.1 µM,3.38 µM,25.7 µM,6.7 µM,–,–,–,–,–,–,–,–,–,–
O=C(CSCC(=O)N/N=C\c1cc(Br)cc(Br)c1O)N/N=C\c1cc(Br)cc(Br)c1O,> 100 µM,> 100 µM,> 100 µM,31.4 µM,34.1 µM,> 100 µM,> 100 µM,> 100 µM,> 100 µM,> 100 µM,–,–,–,–,–,–,–,–,–,–
COc1cccc2c(NNc3ccc(Cl)cc3)c3ccc([N+](=O)[O-])cc3nc12,17.2 µM,91.9 µM,34.8 µM,22.4 µM,36.1 µM,26.1 µM,33.3 µM,48 µM,> 100 µM,> 100 µM,–,–,–,–,–,–,–,–,–,–
CCC1(CC)C(=O)N(C(=O)c2ccc(Cl)cc2)N(C(=O)c2ccccc2Cl)C1=O,41.8 µM,> 100 µM,22.6 µM,> 100 µM,50.3 µM,> 100 µM,24.9 µM,> 100 µM,> 100 µM,> 100 µM,–,–,–,–,–,–,–,–,–,–
C=C(Cl)C(Cl)(CBr)CCC(Cl)C(C)C (stereo not given),5.47 µM,23.9 µM,0.955 µM,9.52 µM,26.2 µM,5.8 µM,27.9 µM,22 µM,5.62 µM,2.57 µM,–,–,–,–,–,–,–,–,–,–
CC(=S)NC1C(Oc2ccc3c(C)cc(=O)oc3c2)OC(CO)C(O)C1O (stereo not given),> 100 µM,> 100 µM,> 100 µM,> 100 µM,> 100 µM,> 100 µM,> 100 µM,> 100 µM,> 100 µM,> 100 µM,–,–,–,–,–,–,–,–,–,–
COc1cccc(C(=O)C(O)c2cccc(OC)c2OC)c1OC (stereo not given),> 100 µM,> 100 µM,> 100 µM,> 100 µM,> 100 µM,> 100 µM,> 100 µM,> 100 µM,> 100 µM,> 100 µM,–,–,–,–,–,–,–,–,–,–
O=c1n(CCO)nc2n1CCCN2,> 100 µM,> 100 µM,> 100 µM,> 100 µM,> 100 µM,> 100 µM,> 100 µM,> 100 µM,> 100 µM,> 100 µM,–,–,–,–,–,–,–,–,–,–
C=CC(C)(C)c1cc([C@@H]2COc3cc(O)ccc3C2=O)c(O)c(OC)c1OC,41.7 µM,50.4 µM,47.3 µM,33.7 µM,37.9 µM,34.8 µM,58.3 µM,3.58 µM,52.6 µM,31.8 µM,–,–,–,–,–,–,–,–,–,–

# — PubChem BioAssay (NCI)
